According to ChEMBL document CHEMBL1201862, “PubChem BioAssay data set” (2004):
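Growth conditions: 96-well plates. Treatment: test compound, 48 hours, 5 concentrations. Analysis: linear interpolation between bracketing concentrations; unreached endpoints set to highest concentration. The concentration for 50% growth inhibition is given as GI50.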 The source made the active and inactive calls. Cut-off read from the data, not from the text of the source: active = GI50 up to about 1.1 µM and inactive = higher.

Tests used:
Assay in all cases: growth of human tumour cells (NCI), 48 h
OVCAR-8 = system: OVCAR-8
DLD-1 = system: DLD-1
MOLT-4 = system: MOLT-4
SNB-19 = system: SNB-19
A498 = system: A498
EKVX = system: EKVX
NCI-H226 = system: NCI-H226
LXFL 529 = system: LXFL 529
KM12 = system: KM12
UO-31 = system: UO-31
U-251 = system: U-251
NCI-H23 = system: NCI-H23
K562 = system: K562
SK-MEL-2 = system: SK-MEL-2
HCC 2998 = system: HCC 2998
CAKI-1 = system: CAKI-1
RPMI-8226 = system: RPMI-8226
SF-268 = system: SF-268
HL-60 = system: HL-60
COLO 205 = system: COLO 205
SF-539 = system: SF-539
SK-MEL-28 = system: SK-MEL-28
HOP-18 = system: HOP-18
SF-295 = system: SF-295
HOP-92 = system: HOP-92
A549 = system: A549
HT-29 = system: HT-29
Malme-3M = system: Malme-3M
CCRF-CEM = system: CCRF-CEM
M14 = system: M14
DMS-114 = system: DMS-114
ACHN = system: ACHN
NCI-H460 = system: NCI-H460
KM-20L2 = system: KM-20L2
SNB-78 = system: SNB-78
IGROV-1 = system: IGROV-1
SR = system: SR
SW-620 = system: SW-620
LOX IMVI = system: LOX IMVI
OVCAR-5 = system: OVCAR-5
XF498 = system: XF498
SK-MEL-5 = system: SK-MEL-5
SNB-75 = system: SNB-75
HCT-116 = system: HCT-116
TK-10 = system: TK-10
RXF 393 = system: RXF 393
OVCAR-4 = system: OVCAR-4
SN12C = system: SN12C
UACC-257 = system: UACC-257
RXF 631 = system: RXF 631
HCT-15 = system: HCT-15
NCI-H522 = system: NCI-H522
HOP-62 = system: HOP-62
M19-MEL = system: M19-MEL
OVCAR-3 = system: OVCAR-3
SK-OV-3 = system: SK-OV-3
DMS-273 = system: DMS-273
UACC-62 = system: UACC-62
786-0 = system: 786-0

With `COc1nc(N)c(C(=O)CCl)c(=O)n1C` the GI50 (OVCAR-8) was 19 µM (inactive), the GI50 (DLD-1) was 13.2 µM (inactive) and the GI50 (MOLT-4) was 13.9 µM (inactive). For the same molecule, the GI50 (SNB-19) was 17.7 µM (inactive), the GI50 (A498) was 15.4 µM (inactive) and the GI50 (EKVX) was 15.1 µM (inactive). For the same molecule, the GI50 (NCI-H226) was 4.5 µM (inactive), the GI50 (LXFL 529) was 13.6 µM (inactive) and the GI50 (KM12) was 14.3 µM (inactive). The GI50 (UO-31) was 22 µM (inactive), the GI50 (U-251) was 15.5 µM (inactive) and the GI50 (NCI-H23) was > 10 µM (inactive). For the same molecule, the GI50 (K562) was 8.17 µM (inactive), the GI50 (SK-MEL-2) was 12.5 µM (inactive) and the GI50 (HCC 2998) was 9.68 µM (inactive). The GI50 (CAKI-1) was 7.41 µM (inactive), the GI50 (RPMI-8226) was 2.71 µM (inactive) and the GI50 (SF-268) was 19.1 µM (inactive). For the same molecule, the GI50 (HL-60) was 2.17 µM (inactive), the GI50 (COLO 205) was 10.6 µM (inactive) and the GI50 (SF-539) was 18 µM (inactive). The GI50 (SK-MEL-28) was 12 µM (inactive), the GI50 (HOP-18) was 16.4 µM (inactive) and the GI50 (SF-295) was 15.2 µM (inactive). The GI50 (HOP-92) was 4.66 µM (inactive), the GI50 (A549) was 18 µM (inactive) and the GI50 (HT-29) was 16 µM (inactive). The GI50 (Malme-3M) was 10.5 µM (inactive), the GI50 (CCRF-CEM) was 15.1 µM (inactive) and the GI50 (M14) was > 10 µM (inactive). For the same molecule, the GI50 (DMS-114) was 16.8 µM (inactive), the GI50 (ACHN) was 20.6 µM (inactive) and the GI50 (NCI-H460) was 19 µM (inactive). The GI50 (KM-20L2) was 18.3 µM (inactive), the GI50 (SNB-78) was 12 µM (inactive) and the GI50 (IGROV-1) was 13.6 µM (inactive). The GI50 (SR) was 15.3 µM (inactive), the GI50 (SW-620) was 12.4 µM (inactive) and the GI50 (LOX IMVI) was 5.28 µM (inactive). For the same molecule, the GI50 (OVCAR-5) was 20.2 µM (inactive), the GI50 (XF498) was 16.4 µM (inactive) and the GI50 (SK-MEL-5) was 15.1 µM (inactive). For the same molecule, the GI50 (SNB-75) was 13.3 µM (inactive), the GI50 (HCT-116) was 10.9 µM (inactive) and the GI50 (TK-10) was 14.7 µM (inactive). For the same molecule, the GI50 (RXF 393) was 7.35 µM (inactive), the GI50 (OVCAR-4) was 15.4 µM (inactive) and the GI50 (SN12C) was 17.5 µM (inactive). The GI50 (UACC-257) was 11.5 µM (inactive) and the GI50 (RXF 631) was 15.3 µM (inactive).
With `COc1cccc(NC(=O)N/C(=C/c2ccc(N(CCC#N)CCC#N)cc2)NC(=O)c2cc([N+](=O)[O-])ccc2Cl)c1` the GI50 (OVCAR-8) was > 100 µM (inactive), the GI50 (DLD-1) was 89.5 µM (inactive) and the GI50 (HCT-15) was 95.5 µM. For the same molecule, the GI50 (MOLT-4) was 35 µM (inactive), the GI50 (SNB-19) was > 100 µM (inactive) and the GI50 (NCI-H522) was 26.5 µM (inactive). The GI50 (HOP-62) was > 100 µM (inactive), the GI50 (EKVX) was > 100 µM (inactive) and the GI50 (NCI-H226) was > 100 µM (inactive). For the same molecule, the GI50 (LXFL 529) was > 100 µM (inactive), the GI50 (KM12) was > 100 µM (inactive) and the GI50 (UO-31) was > 100 µM (inactive). For the same molecule, the GI50 (U-251) was > 100 µM (inactive), the GI50 (NCI-H23) was > 100 µM (inactive) and the GI50 (K562) was > 100 µM (inactive). For the same molecule, the GI50 (SK-MEL-2) was > 100 µM (inactive), the GI50 (CAKI-1) was > 100 µM (inactive) and the GI50 (M19-MEL) was > 100 µM (inactive). The GI50 (RPMI-8226) was 51.6 µM (inactive), the GI50 (SF-268) was > 100 µM (inactive) and the GI50 (COLO 205) was > 100 µM (inactive). The GI50 (OVCAR-3) was > 100 µM (inactive), the GI50 (SF-539) was > 100 µM (inactive) and the GI50 (SK-MEL-28) was 64 µM (inactive). The GI50 (HOP-18) was > 100 µM (inactive), the GI50 (SF-295) was > 100 µM (inactive) and the GI50 (HOP-92) was > 100 µM (inactive). The GI50 (A549) was > 100 µM (inactive), the GI50 (CCRF-CEM) was 77.8 µM (inactive) and the GI50 (DMS-114) was 37.2 µM (inactive). The GI50 (ACHN) was > 100 µM (inactive), the GI50 (KM-20L2) was > 100 µM (inactive) and the GI50 (SK-OV-3) was > 100 µM (inactive). The GI50 (SNB-78) was > 100 µM (inactive), the GI50 (IGROV-1) was > 100 µM (inactive) and the GI50 (SR) was 10.1 µM (inactive). For the same molecule, the GI50 (DMS-273) was > 100 µM (inactive), the GI50 (LOX IMVI) was 71.4 µM (inactive) and the GI50 (UACC-62) was 89.3 µM (inactive). The GI50 (OVCAR-5) was > 100 µM (inactive), the GI50 (XF498) was > 100 µM (inactive) and the GI50 (SK-MEL-5) was > 100 µM (inactive). For the same molecule, the GI50 (HCT-116) was > 100 µM (inactive), the GI50 (TK-10) was > 100 µM (inactive) and the GI50 (RXF 393) was > 100 µM (inactive). The GI50 (OVCAR-4) was > 100 µM (inactive), the GI50 (SN12C) was > 100 µM (inactive) and the GI50 (RXF 631) was > 100 µM (inactive).
In the case of `Cc1cccc(C)c1NC(=O)CCCC(=O)CC(=O)/C=C/c1ccccc1`, the GI50 (OVCAR-8) is reported as > 100 µM (inactive), the GI50 (DLD-1) is reported as > 100 µM (inactive) and the GI50 (HCT-15) is reported as over 100 µM. The GI50 (MOLT-4) was > 100 µM (inactive), the GI50 (SNB-19) was > 100 µM (inactive) and the GI50 (NCI-H522) was > 100 µM (inactive). The GI50 (A498) was > 100 µM (inactive), the GI50 (LXFL 529) was > 100 µM (inactive) and the GI50 (KM12) was > 100 µM (inactive). For the same molecule, the GI50 (UO-31) was > 100 µM (inactive), the GI50 (U-251) was > 100 µM (inactive) and the GI50 (NCI-H23) was > 100 µM (inactive). For the same molecule, the GI50 (K562) was > 100 µM (inactive), the GI50 (SK-MEL-2) was > 100 µM (inactive) and the GI50 (CAKI-1) was > 100 µM (inactive). The GI50 (M19-MEL) was > 100 µM (inactive), the GI50 (RPMI-8226) was > 100 µM (inactive) and the GI50 (SF-268) was > 100 µM (inactive). For the same molecule, the GI50 (COLO 205) was > 100 µM (inactive), the GI50 (OVCAR-3) was > 100 µM (inactive) and the GI50 (SF-539) was > 100 µM (inactive). The GI50 (SK-MEL-28) was > 100 µM (inactive), the GI50 (HOP-18) was > 100 µM (inactive) and the GI50 (HOP-92) was > 100 µM (inactive). The GI50 (A549) was > 100 µM (inactive), the GI50 (HT-29) was > 100 µM (inactive) and the GI50 (Malme-3M) was > 100 µM (inactive). The GI50 (CCRF-CEM) was > 100 µM (inactive), the GI50 (M14) was > 100 µM (inactive) and the GI50 (DMS-114) was > 100 µM (inactive). The GI50 (ACHN) was > 100 µM (inactive), the GI50 (NCI-H460) was > 100 µM (inactive) and the GI50 (KM-20L2) was > 100 µM (inactive). The GI50 (SK-OV-3) was > 100 µM (inactive), the GI50 (SNB-78) was > 100 µM (inactive) and the GI50 (IGROV-1) was > 100 µM (inactive). The GI50 (DMS-273) was > 100 µM (inactive), the GI50 (786-0) was > 100 µM (inactive) and the GI50 (SW-620) was > 100 µM (inactive). For the same molecule, the GI50 (LOX IMVI) was > 100 µM (inactive), the GI50 (UACC-62) was > 100 µM (inactive) and the GI50 (OVCAR-5) was > 100 µM (inactive). For the same molecule, the GI50 (XF498) was > 100 µM (inactive), the GI50 (SK-MEL-5) was > 100 µM (inactive) and the GI50 (SNB-75) was > 100 µM (inactive). For the same molecule, the GI50 (HCT-116) was > 100 µM (inactive), the GI50 (TK-10) was > 100 µM (inactive) and the GI50 (RXF 393) was > 100 µM (inactive). The GI50 (OVCAR-4) was > 100 µM (inactive), the GI50 (SN12C) was > 100 µM (inactive) and the GI50 (UACC-257) was > 100 µM (inactive). For the same molecule, the GI50 (RXF 631) was > 100 µM (inactive).
